# Calls of active or inactive are those of the source. No cut-off for these calls is given here.
# Key:
# [1] = molecular target: T1, Tryptophan 2,3-dioxygenase (Homo sapiens, UniProt P48775)
# Target sequence in this assay (P48775 whole entry): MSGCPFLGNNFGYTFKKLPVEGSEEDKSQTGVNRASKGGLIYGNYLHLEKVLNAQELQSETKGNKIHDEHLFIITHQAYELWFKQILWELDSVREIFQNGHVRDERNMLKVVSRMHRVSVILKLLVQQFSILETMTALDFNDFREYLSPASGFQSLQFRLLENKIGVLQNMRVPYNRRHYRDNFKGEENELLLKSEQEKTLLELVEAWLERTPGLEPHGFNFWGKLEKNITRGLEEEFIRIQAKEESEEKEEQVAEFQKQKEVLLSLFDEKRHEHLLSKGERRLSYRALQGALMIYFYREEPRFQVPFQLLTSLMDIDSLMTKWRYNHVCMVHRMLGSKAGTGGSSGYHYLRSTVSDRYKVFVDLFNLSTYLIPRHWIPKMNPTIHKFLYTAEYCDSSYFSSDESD
# [2] = molecular target: T2, Indoleamine 2,3-dioxygenase 1 (Homo sapiens, UniProt P14902); assay: Inhibition of N-terminal His-tagged recombinant human IDO1 extracted from Escherichia coli Transetta (DE3) using L-tryptophan as substrate preincubated for 5 mins followed by substrate addition and measured after 1 hrs by absorbance based microplate reader
# Target sequence in this assay (P14902 whole entry): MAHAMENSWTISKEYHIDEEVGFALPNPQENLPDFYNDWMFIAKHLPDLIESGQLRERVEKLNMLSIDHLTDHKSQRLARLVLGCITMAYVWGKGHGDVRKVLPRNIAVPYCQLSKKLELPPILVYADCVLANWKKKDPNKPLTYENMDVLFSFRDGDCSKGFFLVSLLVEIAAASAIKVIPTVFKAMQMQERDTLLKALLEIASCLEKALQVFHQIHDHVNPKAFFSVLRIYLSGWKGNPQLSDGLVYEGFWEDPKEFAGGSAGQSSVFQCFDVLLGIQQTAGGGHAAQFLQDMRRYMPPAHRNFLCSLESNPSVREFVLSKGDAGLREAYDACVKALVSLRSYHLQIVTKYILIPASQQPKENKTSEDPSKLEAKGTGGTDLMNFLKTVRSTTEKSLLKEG
# [3] = molecular target: T2, Indoleamine 2,3-dioxygenase 1; assay: Inhibition of IDO1 in IFN-gamma induced human HeLa cells using L-tryptophan as substrate incubated for 24 hrs by absorbance based microplate analysis; format: cell-based
# Target sequence in this assay (P14902 whole entry): as above
# [4] = molecular target: T1, Tryptophan 2,3-dioxygenase; remark: listed apart in the source
# Target sequence in this assay (P48775 whole entry): as the sequence (P48775 whole entry) above
# [5] = molecular target: T2, Indoleamine 2,3-dioxygenase 1; assay: Inhibition of IDO1 (unknown origin)
# [6] = molecular target: T1, Tryptophan 2,3-dioxygenase; assay: Inhibition of TDO (unknown origin)
IC50 [1] [µM],IC50 [2] [µM],SMILES,also measured
> 100,> 100,COc1ccc2cc(-c3cc4ccccc4o3)ncc2c1OC,
> 100,> 100,COc1ccc2cc(-c3ccc(NC(=O)c4ccc(F)cc4)cc3)ncc2c1O,
0.2,1.24,COc1ccc2cc(-c3ccc(NS(C)(=O)=O)cc3)ncc2c1O,IC50 [3]: 23 µM; IC50 [4]: 14.8 µM
3.25,> 100,COc1ccc2cc(-c3ccc(NC(=O)c4ccc(C(F)(F)F)cc4)cc3)ncc2c1O,
> 100,> 100,Oc1ccc2cc(-c3ccc4c(c3)OCO4)ncc2c1,
2.9,11.2,COc1ccc2cc(-c3cccs3)ncc2c1OC,
34.3,78.6,COc1ccc2cc(-c3ccc(Br)cc3)ncc2c1OC,
2.64,17.8,COc1ccc2cc(C34C[C@H]5C[C@@H](C3)C[C@@H](C4)C5)ncc2c1OC,
1.2,2.81,COc1ccc2cc(-c3ccc(NC(=O)C(C)(C)C)cc3)ncc2c1O,
0.35,2.11,COc1ccc2cc(-c3ccc(NC(C)=O)cc3)ncc2c1O,IC50 [3]: > 30 µM; IC50 [4]: > 30 µM
4.08,14.2,COc1cccc(C(=O)Nc2ccc(-c3cc4ccc(OC)c(O)c4cn3)cc2)c1,
9.08,42.6,COc1ccc2cc(-c3ccc(F)cc3)ncc2c1OC,
> 100,> 100,COc1ccc2cc(-c3ccc4ncsc4c3)ncc2c1OC,
> 100,> 100,COc1ccc2cc(-c3cccnc3)ncc2c1OC,
0.34,7.81,COc1ccc2cc(-c3ccccc3)ncc2c1OC,IC50 [3]: > 30 µM; IC50 [4]: > 30 µM
5.6,> 100,COc1ccc2nc(-c3ccccc3)ccc2c1O,

# The next lines start with the molecule.
SMILES,IC50 [1] [µM],IC50 [2] [µM],also measured
COc1ccc(-c2cc3ccc(OC)c(OC)c3cn2)cc1,2.72,11.1,
COc1ccc2cc(-c3ccc(F)cc3)ncc2c1O,51,> 100,
COc1ccc2cc(-c3ccc(C(F)(F)F)cc3)ncc2c1O,7.28,15.3,
COc1ccc2cc(-c3ccc(NC(=O)c4ccccc4)cc3)ncc2c1O,0.19,4.45,IC50 [3]: > 30 µM; IC50 [4]: 14.6 µM
COc1ccc2cc(-c3ccc(C(C)(C)C)cc3)ncc2c1OC,23.1,> 100,
COc1ccc(-c2cc3ccc(OC)c(O)c3cn2)cc1,0.45,0.71,IC50 [3]: 15.8 µM; IC50 [4]: > 30 µM
COc1ccc2cc(-c3ccc(NS(=O)(=O)C4CC4)cc3)ncc2c1O,3.36,4.54,
COc1ccc(-c2ccc3c(O)c(OC)ccc3n2)cc1,> 100,> 100,
COc1ccc2cc(-c3ccc(NC(=O)C(F)(F)F)cc3)ncc2c1O,1.16,6.13,
COc1ccc2cc(-c3ccc(C(=O)Nc4ccccc4)cc3)ncc2c1O,0.25,10.1,IC50 [3]: > 30 µM; IC50 [4]: 22.3 µM
COc1ccc2cc(-c3ccc(NC(=O)c4ccc(C)cc4)cc3)ncc2c1O,45.3,> 100,
COc1ccc2cc3[n+](cc2c1O)CCc1cc2c(cc1-3)OCO2,,,inhibition [5]: Active; inhibition [6]: Active
COc1ccc2cc(-c3ccc(NS(=O)(=O)N4CCCCC4)cc3)ncc2c1O,7.97,15.4,
Oc1cccc2cc(-c3ccccc3)ncc12,25,70.5,
COc1ccc2nc(-c3ccccc3)ncc2c1O,> 100,> 100,
COc1ccc(-c2ncc3c(O)c(OC)ccc3n2)cc1,> 100,> 100,
COc1ccc2cc(-c3ccc4c(c3)OCO4)ncc2c1O,0.28,5.1,IC50 [3]: > 30 µM; IC50 [4]: 25.8 µM
COc1ccc2cc(-c3ccc(C)cc3)ncc2c1O,> 100,> 100,
COc1ccc2cc(-c3ccc(NC(=O)Nc4ccccc4)cc3)ncc2c1O,14.3,50.5,
COc1ccc2cc(-c3ccccc3)ncc2c1O,0.24,0.89,IC50 [3]: 17.1 µM; IC50 [4]: 24 µM
COc1ccc2cc3[n+](cc2c1OC)CCc1cc2c(cc1-3)OCO2 [BERBERINE],,,IC50 [5]: 0.26 µM; IC50 [6]: 0.03 µM
COc1ccc2cc(-c3cccs3)ncc2c1O,1.02,21,
COc1ccc2cc(-c3ccc(C)cc3)ncc2c1OC,> 100,> 100,
